Reference: patent US7030130B2, “Benzofuran derivatives and their use as antibacterial agents” (Arpida AG, priority 2000, dated 2006)
In brackets after ≈: the same amount, converted by molar mass.

Legend:
Test in all cases: Antimicrobial susceptibility testing (NCCLS M7-A5), MIC
Assay type in all cases: cell-based
[1] = test system: Streptococcus pneumoniae ATCC 49619; conditions: ATCC49619, in vitro, read-out: Minimum Inhibitory Concentration (MIC)
Method: (§1) Antimicrobial susceptibility testing was performed in accordance with the National Committee for Clinical Laboratory Standards (NCCLS) procedure [M7-A5, 2001]. […] Methods for Dilution Antimicrobial Susceptibility Tests for Bacteria That Grow Aerobically; Approved Standard—Fifth Edition American National Standard

[2] = test system: Enterococcus faecalis ATCC 29212; conditions: ATCC29212, in vitro, read-out: Minimum Inhibitory Concentration (MIC)
Method: as §1

[3] = test system: Bacillus subtilis ATCC 6051; conditions: ATCC6051, in vitro, read-out: Minimum Inhibitory Concentration (MIC)
Method: as §1

[4] = test system: Escherichia coil ATCC 25922; conditions: ATCC25922, in vitro, read-out: Minimum Inhibitory Concentration (MIC)
Method: as §1

[5] = test system: Staphylococcus aureus ATCC 25923; conditions: ATCC25923, in vitro, read-out: Minimum Inhibitory Concentration (MIC)
Method: as §1

[6] = test system: Staphylococcus epidermidis ATCC 12228; conditions: ATCC12228, in vitro, read-out: Minimum Inhibitory Concentration (MIC)
Method: as §1

Compound: COc1cc(Cc2cnc(N)nc2N)c2cc(Cc3ccc(F)cc3)oc2c1OC [Example 72, 5-[2-(4-fluoro-benzyl)-6,7-dimethoxy-benzofuran-4-ylmethyl]-pyrimidine-2,4-diamine]
- MIC [1]: 0.5 µg/mL (≈ 1.22 µM)
- MIC [2]: 1 µg/mL (≈ 2.45 µM)
- MIC [3]: 0.25 µg/mL (≈ 0.612 µM)
- MIC [4]: 2 µg/mL (≈ 4.9 µM)
- MIC [5]: 0.25 µg/mL (≈ 0.612 µM)
- MIC [6]: 0.015 µg/mL (≈ 0.0367 µM)

Compound: COc1cc(Cc2cnc(N)nc2N)cc(OC)c1OC [Trimethoprim, 2,4-diamino-5-(3,4,5-trimethoxybenzyl)pyrimidine, reference compound]
- MIC [1]: 2 µg/mL (≈ 6.89 µM)
- MIC [2]: 0.5 µg/mL (≈ 1.72 µM)
- MIC [3]: 0.5 µg/mL (≈ 1.72 µM)
- MIC [4]: 0.25 µg/mL (≈ 0.861 µM)
- MIC [5]: 2 µg/mL (≈ 6.89 µM)
- MIC [6]: 0.062 µg/mL (≈ 0.214 µM)

Compound: COc1cc(Cc2cnc(N)nc2N)c2cc(CC3CC3)oc2c1OC [Example 20, 5-(2-Cyclopropylmethyl-6,7-dimethoxy-benzofuran-4-ylmethyl)-pyrimidine-2,4-diamine]
- MIC [1]: 0.125 µg/mL (≈ 0.353 µM)
- MIC [2]: 0.5 µg/mL (≈ 1.41 µM)
- MIC [3]: 0.062 µg/mL (≈ 0.175 µM)
- MIC [4]: 4 µg/mL (≈ 11.3 µM)
- MIC [5]: 0.062 µg/mL (≈ 0.175 µM)
- MIC [6]: 0.062 µg/mL (≈ 0.175 µM)

Compound: COc1cc(Cc2cnc(N)nc2N)c2cc(Cc3ccccc3)oc2c1OC [Example 21, 5-(2-Benzyl-6,7-dimethoxy-benzofuran-4-ylmethyl)-pyrimidine-2,4-diamine]
- MIC [1]: 0.5 µg/mL (≈ 1.28 µM)
- MIC [2]: 0.125 µg/mL (≈ 0.32 µM)
- MIC [3]: 0.062 µg/mL (≈ 0.159 µM)
- MIC [4]: 2 µg/mL (≈ 5.12 µM)
- MIC [5]: 0.062 µg/mL (≈ 0.159 µM)
- MIC [6]: 0.062 µg/mL (≈ 0.159 µM)
